What follows are compounds tested against human P2X7 receptor (Homo sapiens (Human), UniProt Q99572, R270H) (assay: Evaluation of a human P2X7 receptor inhibitory activity (Yo-Pro uptake, BzATP stimulation, FLIPR TETRA)). Conditions: 1321N1 cells stably expressing human P2X7 receptor, Yo-Pro fluorescence.
Assay type: cell-based
Procedure: Evaluation of a human P2X7 receptor inhibitory activity Stably expressing cell line (1321N1 cell transfected with the human P2X7 receptor gene (GenBank accession number NM_002562.5 including T606C and G952A SNP)) was used. The cells were seeded in a 384-well microtiter plate at a concentration of 8000 cells/well and cultured in the medium (10% fetal bovine serum, 25 mM HEPES, 1% penicillin and streptomycin in DMEM) for one day at 37° C. under 5% carbon dioxide atmosphere. After replacing with 20 μL of the HBSS buffer (20 mM HEPES, 55.6 mM D-glucose, 1× HBSS(−), pH7.4-7.5), 15 μL of 17.3 μM Yo-Pro solution in the HBSS buffer was added. The plate was placed in high-throughput cellular screening system FLIPR TETRA (Molecullar Devices, LLC.) and 15 μL of 130 μM BzATP solution in the HBSS buffer was added. Measurement of fluorescence intensity by FLIPR TETRA was started. After eight minutes, 15 μL of DMSO solutions containing different concentrations of the compound of the present invention as prepared by dilution with the HBSS buffer were dispensed to each well through the built-in automatic dispenser, and the measurement of fluorescence intensity was continued for 20 minutes. The maximum fluorescence intensity without the compound of the present invention is calculated as 0% inhibition and the maximum fluorescence intensity when the reference compound was added is calculated as 100% inhibition. Changing values of fluorescence intensity by the compound of the present invention were calculated by difference between maximum and minimum fluorescence intensity for 20 minutes. Inhibition ratios (%) were calculated from the following equation:
[formula] IC50 was calculated using logistic approximation.
As for IC50 value, value to below 10 nmol/L is represented as “A”, value from 10 nmol/L to below 100 nmol/L is represented as “B”, value from 100 nmol/L to below 500 nmol/L is represented as “C”, and value from 500 nmol/L to below 1 μmol/L is represented as “D”.

Sequence of human P2X7 receptor (Q99572 whole entry R270H): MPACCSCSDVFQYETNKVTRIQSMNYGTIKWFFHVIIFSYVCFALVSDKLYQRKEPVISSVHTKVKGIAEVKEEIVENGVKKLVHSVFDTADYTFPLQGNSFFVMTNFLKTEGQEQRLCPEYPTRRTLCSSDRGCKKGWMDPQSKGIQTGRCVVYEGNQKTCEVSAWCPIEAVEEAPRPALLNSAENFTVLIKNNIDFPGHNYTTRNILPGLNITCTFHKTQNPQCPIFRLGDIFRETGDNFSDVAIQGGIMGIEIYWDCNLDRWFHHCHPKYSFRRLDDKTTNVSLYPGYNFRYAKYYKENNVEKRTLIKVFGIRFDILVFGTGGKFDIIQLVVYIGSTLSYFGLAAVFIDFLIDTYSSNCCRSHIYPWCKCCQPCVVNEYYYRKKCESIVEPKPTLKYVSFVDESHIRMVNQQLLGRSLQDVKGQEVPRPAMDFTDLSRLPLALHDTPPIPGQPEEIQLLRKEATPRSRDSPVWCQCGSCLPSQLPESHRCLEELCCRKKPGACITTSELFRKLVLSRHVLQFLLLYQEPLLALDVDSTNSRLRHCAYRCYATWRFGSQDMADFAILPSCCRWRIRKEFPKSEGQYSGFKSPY

SMILES | IC50
Cc1c(Cl)cccc1Nc1nc(=O)cc2n1C(c1ccccc1)COC2 (single isomer, unassigned) [Compound I-0003] | 1.8 nM
O=c1cc2n(c(Nc3cccc4ncccc34)n1)C(c1ccccc1)CO2 (stereo not shown) [Compound I-0001] | 16 nM
Cc1ccccc1Nc1nc(=O)cc2n1C(c1ccccc1)CCC2 (stereo not shown) [Compound I-0004] | 37 nM
COc1c2n(c(Nc3cccc(Cl)c3C)nc1=O)C(c1ccccc1)CCO2 (stereo not shown) [Compound I-0009] | 22 nM
COc1c2n(c(Nc3cc4sc(C)nc4cc3C)nc1=O)C(c1ccccc1)CC2 (stereo not shown) [Compound I-0032] | 16 nM

Same assay, conditions: 1321N1 cells stably expressing human P2X7 receptor, Yo-Pro fluorescence, class symbols

SMILES | IC50
Cc1c(Cl)cccc1Nc1nc(=O)cc2n1C(c1ccccc1)CO2 (stereo not shown) [Compound I-0002] | < 10 nM
Cc1c(Cl)cccc1Nc1nc(=O)cc2n1C(c1ccccc1)CCC2 (stereo not shown) [Compound I-0005] | 10 to 100 nM
Cc1c(Cl)cccc1Nc1nc(=O)cc2n1C(c1ccccc1)CCO2 (stereo not shown) [Compound I-0006] | 10 to 100 nM
Cc1c(Cl)cccc1Nc1nc(=O)cc2n1C(c1ccccc1)CC2 (stereo not shown) [Compound I-0007] | < 10 nM
Cc1c(Cl)cccc1Nc1nc(=O)cc2n1C(c1cccc(Cl)c1)CC2 (stereo not shown) [Compound I-0008] | < 10 nM
COc1cc(C)c(Nc2nc(=O)cc3n2C(c2ccccc2)CC3)cc1OC (stereo not shown) [Compound I-0010] | < 10 nM
Cc1cc(Nc2nc(=O)cc3n2C(c2ccccc2)CC3)c(C)cc1Cl (stereo not shown) [Compound I-0011] | < 10 nM
Cc1cc(Nc2nc(=O)cc3n2C(c2ccc(F)c(Cl)c2)CC3)c(C)cc1Cl (stereo not shown) [Compound I-0012] | < 10 nM
COc1cc(C)c(Nc2nc(=O)cc3n2C(c2ccc(F)c(Cl)c2)CC3)cc1OC (stereo not shown) [Compound I-0013] | < 10 nM
COc1ccc(Nc2nc(=O)cc3n2C(c2ccccc2)CC3)c(C)c1 (stereo not shown) [Compound I-0014] | < 10 nM
Cc1ccccc1Nc1nc(=O)cc2n1C(c1ccccc1)CC2 (stereo not shown) [Compound I-0015] | 10 to 100 nM
COc1ccc(C)c(Nc2nc(=O)cc3n2C(c2ccccc2)CC3)c1 (stereo not shown) [Compound I-0016] | 10 to 100 nM
COc1cc(C)c(Nc2nc(=O)cc3n2C(c2ccc(F)cc2)CC3)cc1OC (stereo not shown) [Compound I-0017] | 10 to 100 nM
COc1cc(C)c(Nc2nc(=O)cc3n2C(c2cccc(F)c2)CC3)cc1OC (stereo not shown) [Compound I-0018] | 10 to 100 nM
COc1ccc(Nc2nc(=O)cc3n2C(c2ccccc2)CC3)cc1OC (stereo not shown) [Compound I-0019] | < 10 nM
COc1cc(C)c(Nc2nc(=O)cc3n2C(c2ccccc2)CC3)cc1C (stereo not shown) [Compound I-0020] | < 10 nM
COc1cc(C)c(Nc2nc(=O)cc3n2C(c2cc(F)c(F)c(F)c2)CC3)cc1OC (stereo not shown) [Compound I-0021] | 10 to 100 nM
COc1cc(Nc2nc(=O)cc3n2C(c2ccccc2)CC3)c(C)cc1F (stereo not shown) [Compound I-0022] | < 10 nM
COc1ccc(Nc2nc(=O)cc3n2C(c2ccc(F)cc2)CC3)c(C)c1 (stereo not shown) [Compound I-0023] | < 10 nM
COc1cc(C)c(Nc2nc(=O)cc3n2C(c2ccccc2)CC3)cc1F (stereo not shown) [Compound I-0024] | 10 to 100 nM
COc1cc(C)c(Nc2nc(=O)cc3n2C(c2ccc(F)c(F)c2)CC3)cc1OC (stereo not shown) [Compound I-0025] | 10 to 100 nM
Cc1nc2cc(C)c(Nc3nc(=O)cc4n3C(c3ccc(F)cc3)CC4)cc2s1 (stereo not shown) [Compound I-0026] | < 10 nM
COc1cc(Nc2nc(=O)cc3n2C(c2ccccc2)CC3)c(C)cc1Cl (stereo not shown) [Compound I-0027] | < 10 nM
COc1cc(C)c(Nc2nc(=O)cc3n2C(c2ccccc2)CC3)cc1Cl (stereo not shown) [Compound I-0028] | < 10 nM
Cc1nc2cc(C)c(Nc3nc(=O)cc4n3[C@H](c3ccccc3)CC4)cc2s1 [Compound I-0029] | < 10 nM
COc1cc(C)c(Nc2nc(=O)cc3n2C(c2ccccc2)CC3)cn1 (stereo not shown) [Compound I-0030] | 100 to 500 nM
COc1cc(C)c(Nc2nc(=O)c(OC)c3n2C(c2ccccc2)CC3)cc1C (stereo not shown) [Compound I-0031] | 10 to 100 nM
COc1cc(Nc2nc(=O)cc3n2C(c2ccc(F)cc2)CC3)c(C)cc1Cl (stereo not shown) [Compound I-0033] | 10 to 100 nM
COc1ccc(Nc2nc(=O)cc3n2C(c2ccccc2)CC3)c(C)n1 (stereo not shown) [Compound I-0034] | 10 to 100 nM
